Experimental data published in ChEMBL document CHEMBL1130294, “Subsite requirements for peptide aldehyde inhibitors of human calpain I” (Bioorg Med Chem Lett, 1997).
Non-standard residues stand in square brackets, D forms with d. Residues, ends and D or L forms follow the SMILES beside them. *: point of attachment. Tic = O=C(O)[C@@H]1Cc2ccccc2CN1; Cha = N[C@@H](CC1CCCCC1)C(=O)O; Tle = CC(C)(C)[C@H](N)C(=O)O; Nle = CCCC[C@H](N)C(=O)O; Abu = CC[C@H](N)C(=O)O; Cbz = O=C(OCc1ccccc1)*; Boc = CC(C)(C)OC(=O)*; Bn = c1ccc(C*)cc1; OtBu = CC(C)(C)O*; tBu = CC(C)(C)*

molecular target: T1, Calpain-1 catalytic subunit (Homo sapiens, UniProt P07384); experiment: Inhibitory activity evaluated against recombinant human calpain 1
T1 sequence (P07384 whole entry): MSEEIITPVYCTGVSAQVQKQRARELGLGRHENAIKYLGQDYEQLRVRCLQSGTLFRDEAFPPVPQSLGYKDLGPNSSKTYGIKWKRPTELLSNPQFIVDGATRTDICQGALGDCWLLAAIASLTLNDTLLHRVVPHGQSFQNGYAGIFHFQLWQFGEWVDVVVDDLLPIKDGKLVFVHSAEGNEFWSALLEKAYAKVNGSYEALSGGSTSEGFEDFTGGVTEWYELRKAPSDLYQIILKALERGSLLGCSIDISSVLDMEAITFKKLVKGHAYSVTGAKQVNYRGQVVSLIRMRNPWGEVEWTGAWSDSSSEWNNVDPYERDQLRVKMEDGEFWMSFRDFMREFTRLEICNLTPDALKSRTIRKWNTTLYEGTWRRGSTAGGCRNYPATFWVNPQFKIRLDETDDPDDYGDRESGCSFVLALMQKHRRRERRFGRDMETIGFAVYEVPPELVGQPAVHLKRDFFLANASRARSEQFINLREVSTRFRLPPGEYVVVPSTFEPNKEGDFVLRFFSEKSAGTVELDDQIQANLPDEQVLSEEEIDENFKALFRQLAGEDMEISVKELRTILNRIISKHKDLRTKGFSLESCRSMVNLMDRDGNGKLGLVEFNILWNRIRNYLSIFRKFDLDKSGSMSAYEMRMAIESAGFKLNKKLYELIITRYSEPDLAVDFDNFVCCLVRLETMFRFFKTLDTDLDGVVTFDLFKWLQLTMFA

Compound | IC50 [µM]
CCCC[C@H](NC(=O)OCc1ccccc1)C(=O)N[C@H](C=O)CC(C)C | 0.033
CC(C)C[C@@H](C=O)NC(=O)[C@H](CC(C)C)NC(=O)[C@H](CC(C)C)NC(=O)c1ccc2ccccc2c1 | 0.01
CC(C)C[C@H](NC(=O)OCc1ccccc1)C(=O)NCCC=O | > 10
CC(C)C[C@@H](C=O)NC(=O)[C@@H](NC(=O)OCc1ccccc1)[C@H](C)O | 0.19
CC(C)C[C@@H](C=O)NC(=O)[C@H](CC(C)C)NC(=O)/C=C\C(=O)O | ~10
CC(C)C[C@@H](C=O)NC(=O)CCNC(=O)OCc1ccccc1 | > 10
CC(C)C[C@@H](C=O)NC(=O)[C@H](CC(C)C)NC(=O)c1ccccc1C(=O)O | > 1
CC(C)C[C@H](NC(=O)OCc1ccccc1)C(=O)N(C)[C@H](C=O)CC(C)C | > 1
CC(=O)N[C@@H](CC(C)C)C(=O)N[C@@H](CC(C)C)C(=O)N[C@H](C=O)CC(C)C | 0.015
CC(C)C[C@@H](C=O)NC(=O)[C@H](CC(C)C)NC(=O)OCc1ccc([N+](=O)[O-])cc1 | 0.008
CC(=O)N[C@@H](CC(C)C)C(=O)N[C@H](C=O)CC(C)C | 0.13
CC(=O)N[C@@H](CC(C)C)C(=O)N[C@@H](CC(C)C)C(=O)N[C@@H](C=O)CC(C)C | 0.062
CC(C)C[C@H](C=O)NC(=O)OCc1ccccc1 | 10
CC(=O)N[C@@H](CC(C)C)C(=O)N[C@@H](CC(C)C)C(=O)N[C@H](C=O)CCCNC(=N)N | 0.072
CC(=O)N[C@@H](C)C(=O)N[C@@H](CC(C)C)C(=O)N[C@H](C=O)CC(C)C (Ac-Ala-Leu-Leu-aldehyde) | 0.018
CC(=O)N[C@@H](CC(C)C)C(=O)N[C@@H](CC(C)C)C(=O)N[C@H](C=O)CCC(=O)OC(C)(C)C (Ac-Leu-Leu-Glu(OtBu)-aldehyde) | 1.1
CC(=O)N[C@@H](CC(C)C)C(=O)N[C@@H](CC(C)C)C(=O)NCC=O (Ac-Leu-Leu-Gly-aldehyde) | ~1
CC(=O)N[C@@H](CC(C)C)C(=O)N[C@@H](CC(C)C)C(=O)N[C@H](C=O)CCCCNC(=O)OC(C)(C)C (Ac-Leu-Leu-Lys(Boc)-aldehyde) | 0.033
CC(=O)N[C@@H](CC(C)C)C(=O)N[C@@H](CC(C)C)C(=O)N[C@H](C=O)Cc1c[nH]c2ccccc12 (Ac-Leu-Leu-Trp-aldehyde) | 0.15

Compound | IC50 [µM]
CCCC[C@@H](C=O)NC(=O)[C@H](CC(C)C)NC(=O)[C@H](CC(C)C)NC(C)=O (Ac-Leu-Leu-[Nle]-aldehyde) | 0.012
CC(=O)N[C@@H](COC(C)(C)C)C(=O)N[C@@H](CC(C)C)C(=O)N[C@H](C=O)CC(C)C (Ac-Ser(tBu)-Leu-Leu-aldehyde) | 0.037
CC(=O)N[C@H](C(=O)N[C@@H](Cc1ccccc1)C(=O)N[C@H](C=O)CC(C)C)C(C)C (Ac-Val-Phe-Leu-aldehyde) | 0.11
CC(C)C[C@@H](C=O)NC(=O)[C@H](CC(C)C)NC(=O)[C@H](CC(C)C)NC(=O)[C@H](C)NC(=O)OCc1ccccc1 (Cbz-ALLL-aldehyde) | 0.006
CC(C)C[C@@H](C=O)NC(=O)[C@H](CCC(N)=O)NC(=O)OCc1ccccc1 (Cbz-Gln-Leu-aldehyde) | 0.37
CC(C)C[C@@H](C=O)NC(=O)[C@H](CC(C)C)NC(=O)[C@H](CC(C)C)NC(=O)[C@H](Cc1c[nH]cn1)NC(=O)OCc1ccccc1 (Cbz-HLLL-aldehyde) | 0.017
CC[C@H](C)[C@H](NC(=O)OCc1ccccc1)C(=O)N[C@H](C=O)CC(C)C (Cbz-Ile-Leu-aldehyde) | 0.041
CC(C)C[C@H](NC(=O)OCc1ccccc1)C(=O)N[C@@H](C)C=O (Cbz-Leu-Ala-aldehyde) | 0.12
CC(C)C[C@H](NC(=O)OCc1ccccc1)C(=O)NCC=O (Cbz-Leu-Gly-aldehyde) | 0.3
CC(C)C[C@H](NC(=O)OCc1ccccc1)C(=O)N[C@H](C=O)Cc1cnc[nH]1 (Cbz-Leu-His-aldehyde) | 0.015
CSCC[C@@H](C=O)NC(=O)[C@H](CC(C)C)NC(=O)OCc1ccccc1 (Cbz-Leu-Met-aldehyde) | 0.033
CC(C)C[C@H](NC(=O)OCc1ccccc1)C(=O)N[C@H](C=O)Cc1ccc(OCc2ccccc2)cc1 (Cbz-Leu-Tyr(Bn)-aldehyde) | 0.007
CC(C)C[C@H](NC(=O)OCc1ccccc1)C(=O)N[C@H](C=O)C(C)C (Cbz-Leu-Val-aldehyde) | 0.004
CC[C@@H](C=O)NC(=O)[C@H](CC(C)C)NC(=O)OCc1ccccc1 (Cbz-Leu-[Abu]-aldehyde) | 0.01
CC(C)C[C@H](NC(=O)OCc1ccccc1)C(=O)N[C@H](C=O)CC1CCCCC1 (Cbz-Leu-[Cha]-aldehyde) | 0.011
CC(C)C[C@H](NC(=O)OCc1ccccc1)C(=O)N[C@H](C=O)C(C)(C)C (Cbz-Leu-[Tle]-aldehyde) | 0.035
CC(C)C[C@@H](C=O)NC(=O)[C@H](CO)NC(=O)OCc1ccccc1 (Cbz-Ser-Leu-aldehyde) | 0.53
CC(C)C[C@@H](C=O)NC(=O)[C@H](CC1CCCCC1)NC(=O)OCc1ccccc1 (Cbz-[Cha]-Leu-aldehyde) | 0.58

More lines, now with the values ahead:

IC50 [µM] | Compound
> 10 | CC(C)C[C@@H](C=O)NC(=O)[C@H](CC(C)C)N(C)C(=O)OCc1ccccc1
0.011 | CC(C)C[C@@H](C=O)NC(=O)[C@H](CC(C)C)NC(=O)OCC1c2ccccc2-c2ccccc21
0.008 | CC(C)C[C@@H](C=O)NC(=O)[C@H](CC(C)C)NC(=O)OCc1ccccc1
> 1 | CC(C)C[C@H](NC(=O)OCc1ccccc1)C(=O)N[C@H](CC=O)Cc1ccccc1
0.032 | CC(=O)N[C@@H](CC(C)C)C(=O)N[C@@H](CC(C)C)C(=O)N[C@H](C=O)Cc1ccccc1 (Ac-Leu-Leu-Phe-aldehyde)
0.005 | CC(C)C[C@@H](C=O)NC(=O)[C@H](CC(C)C)NC(=O)[C@H](C)NC(=O)OCc1ccccc1 (Cbz-Ala-Leu-Leu-aldehyde)
0.025 | CC(C)C[C@@H](C=O)NC(=O)[C@H](CC(C)C)NC(=O)[C@H](CCC(=O)OC(C)(C)C)NC(=O)OCc1ccccc1 (Cbz-Glu(OtBu)-Leu-Leu-aldehyde)
0.04 | CC(C)C[C@@H](C=O)NC(=O)[C@H](CC(C)C)NC(=O)[C@H](CCC(=O)O)NC(=O)OCc1ccccc1 (Cbz-Glu-Leu-Leu-aldehyde)
0.09 | CC(C)C[C@@H](C=O)NC(=O)[C@H](C)NC(=O)[C@H](CC(C)C)NC(=O)OCc1ccccc1 (Cbz-Leu-Ala-Leu-aldehyde)
1.2 | CC(C)C[C@@H](C=O)NC(=O)[C@H](CCC(=O)O)NC(=O)[C@H](CC(C)C)NC(=O)OCc1ccccc1 (Cbz-Leu-Glu-Leu-aldehyde)
~10 | CC(C)C[C@@H](C=O)NC(=O)CNC(=O)[C@H](CC(C)C)NC(=O)OCc1ccccc1 (Cbz-Leu-Gly-Leu-aldehyde)
0.019 | CC(C)C[C@@H](C=O)NC(=O)[C@H](CC(C)C)NC(=O)[C@H](CC(C)C)NC(=O)OCc1ccccc1 (Cbz-Leu-Leu-Leu-aldehyde)
~10 | CC(C)C[C@@H](C=O)NC(=O)[C@H](CCCCN)NC(=O)[C@H](CC(C)C)NC(=O)OCc1ccccc1 (Cbz-Leu-Lys-Leu-aldehyde)
0.068 | CC(C)C[C@@H](C=O)NC(=O)[C@H](Cc1ccccc1)NC(=O)[C@H](CC(C)C)NC(=O)OCc1ccccc1 (Cbz-Leu-Phe-Leu-aldehyde)
0.01 | CC(C)C[C@H](NC(=O)OCc1ccccc1)C(=O)N[C@H](C=O)Cc1ccccc1 (Cbz-Leu-Phe-aldehyde)
0.045 | CC(C)C[C@@H](C=O)NC(=O)[C@H](Cc1c[nH]c2ccccc12)NC(=O)[C@H](CC(C)C)NC(=O)OCc1ccccc1 (Cbz-Leu-Trp-Leu-aldehyde)
0.02 | CC(C)C[C@@H](C=O)NC(=O)[C@H](CC(C)C)NC(=O)[C@H](CCCCN)NC(=O)OCc1ccccc1 (Cbz-Lys-Leu-Leu-aldehyde)
0.011 | CC(C)C[C@@H](C=O)NC(=O)[C@H](CC(C)C)NC(=O)[C@H](Cc1ccccc1)NC(=O)OCc1ccccc1 (Cbz-Phe-Leu-Leu-aldehyde)
0.23 | CC(C)C[C@@H](C=O)NC(=O)[C@H](Cc1ccccc1)NC(=O)OCc1ccccc1 (Cbz-Phe-Leu-aldehyde)
0.012 | CC(C)C[C@@H](C=O)NC(=O)[C@H](CC(C)C)NC(=O)[C@H](COC(C)(C)C)NC(=O)OCc1ccccc1 (Cbz-Ser(tBu)-Leu-Leu-aldehyde)
0.12 | CC(C)C[C@@H](C=O)NC(=O)[C@H](Cc1c[nH]c2ccccc12)NC(=O)OCc1ccccc1 (Cbz-Trp-Leu-aldehyde)
0.008 | CC(C)C[C@@H](C=O)NC(=O)[C@H](CC(C)C)NC(=O)[C@H](Cc1ccc(O)cc1)NC(=O)OCc1ccccc1 (Cbz-Tyr-Leu-Leu-aldehyde)
> 1 | CC(C)C[C@@H](C=O)NC(=O)[C@H](Cc1ccc(O)cc1)NC(=O)OCc1ccccc1 (Cbz-Tyr-Leu-aldehyde)
0.029 | CC(C)C[C@@H](C=O)NC(=O)[C@@H](NC(=O)OCc1ccccc1)C(C)C (Cbz-Val-Leu-aldehyde)
0.031 | CC(C)C[C@@H](C=O)NC(=O)[C@H](Cc1ccccc1)NC(=O)[C@@H](NC(=O)OCc1ccccc1)C(C)C (Cbz-Val-Phe-Leu-aldehyde)
0.015 | CC(C)C[C@@H](C=O)NC(=O)[C@H](CC(C)C)NC(=O)[C@@H]1Cc2ccccc2CN1C(=O)OCc1ccccc1 (Cbz-[Tic]-Leu-Leu-aldehyde)
